Reference: BigSolDB 2.1

O=P(c1ccccc1)(c1ccccc1)c1cc(O)ccc1O
solubility (mole fraction) (in 2-ethoxyethanol, 299.43 K): 0.0108 | solubility (mole fraction) (in 2-ethoxyethanol, 303.25 K): 0.0113 | solubility (mole fraction) (in 2-ethoxyethanol, 308.24 K): 0.0124 | solubility (mole fraction) (in 2-ethoxyethanol, 313.46 K): 0.0137 | solubility (mole fraction) (in 2-ethoxyethanol, 318.15 K): 0.0154 | solubility (mole fraction) (in 2-ethoxyethanol, 323.27 K): 0.0168 | solubility (mole fraction) (in 2-ethoxyethanol, 328.26 K): 0.018 | solubility (mole fraction) (in 2-ethoxyethanol, 333.45 K): 0.0198 | solubility (mole fraction) (in 2-ethoxyethanol, 338.75 K): 0.0223 | solubility (mole fraction) (in 2-ethoxyethanol, 343.15 K): 0.0236 | solubility (mole fraction) (in 2-ethoxyethanol, 348.15 K): 0.0252 | solubility (mole fraction) (in 2-ethoxyethanol, 353.14 K): 0.0279 | solubility (mole fraction) (in 2-ethoxyethanol, 358.06 K): 0.0295 | solubility (mole fraction) (in 2-ethoxyethanol, 363.15 K): 0.0316 | solubility (mole fraction) (in 2-ethoxyethanol, 368.16 K): 0.0348 | solubility (mole fraction) (in acetone, 299.45 K): 0.00175 | solubility (mole fraction) (in acetone, 303.26 K): 0.00188 | solubility (mole fraction) (in acetone, 308.24 K): 0.00216 | solubility (mole fraction) (in acetone, 313.47 K): 0.00236 | solubility (mole fraction) (in acetone, 318.13 K): 0.00262 | solubility (mole fraction) (in acetone, 323.26 K): 0.00296 | solubility (mole fraction) (in acetone, 328.25 K): 0.00332 | solubility (mole fraction) (in ethanol, 293.95 K): 0.00571 | solubility (mole fraction) (in ethanol, 298.26 K): 0.00634 | solubility (mole fraction) (in ethanol, 303.44 K): 0.00721 | solubility (mole fraction) (in ethanol, 308.26 K): 0.00787 | solubility (mole fraction) (in ethanol, 313.45 K): 0.00903 | solubility (mole fraction) (in ethanol, 318.47 K): 0.00979 | solubility (mole fraction) (in ethanol, 323.35 K): 0.0109 | solubility (mole fraction) (in ethanol, 328.43 K): 0.0117 | solubility (mole fraction) (in ethanol, 333.35 K): 0.0127 | solubility (mole fraction) (in methanol, 294.16 K): 0.00625 | solubility (mole fraction) (in methanol, 298.35 K): 0.00707 | solubility (mole fraction) (in methanol, 303.87 K): 0.00814 | solubility (mole fraction) (in methanol, 308.85 K): 0.00946 | solubility (mole fraction) (in methanol, 313.34 K): 0.0108 | solubility (mole fraction) (in methanol, 318.15 K): 0.0123 | solubility (mole fraction) (in methanol, 323.56 K): 0.0138 | solubility (mole fraction) (in toluene, 293.96 K): 0.00071 | solubility (mole fraction) (in toluene, 298.25 K): 0.00075 | solubility (mole fraction) (in toluene, 303.47 K): 0.00078 | solubility (mole fraction) (in toluene, 308.24 K): 0.00082 | solubility (mole fraction) (in toluene, 313.45 K): 0.00086 | solubility (mole fraction) (in toluene, 318.43 K): 0.00089 | solubility (mole fraction) (in toluene, 323.38 K): 0.00094 | solubility (mole fraction) (in toluene, 328.45 K): 0.00099 | solubility (mole fraction) (in water, 297.16 K): 0.00011 | solubility (mole fraction) (in water, 308.15 K): 0.00012 | solubility (mole fraction) (in water, 313.34 K): 0.00013 | solubility (mole fraction) (in water, 318.15 K): 0.00014 | solubility (mole fraction) (in water, 323.47 K): 0.00014 | solubility (mole fraction) (in water, 328.46 K): 0.00015 | solubility (mole fraction) (in water, 333.25 K): 0.00015 | solubility (mole fraction) (in water, 338.17 K): 0.00016 | solubility (mole fraction) (in water, 343.25 K): 0.00017 | solubility (mole fraction) (in water, 348.36 K): 0.00017 | solubility (mole fraction) (in water, 353.14 K): 0.00018 | solubility (mole fraction) (in water, 358.13 K): 0.00018 | solubility (mole fraction) (in water, 363.27 K): 0.00019 | solubility (mole fraction) (in water, 368.26 K): 0.00019
